# pIC50: −log10 of the molar value.
# Assays:
# [1] = target: Tyrosine--tRNA ligase (Staphylococcus aureus); assay: Inhibitory activity against Staphylococcus aureus tyrosyl tRNA synthetase (YRS) using aminoacylation assay
# [2] = test system: Tyrosine--tRNA ligase (Staphylococcus aureus); assay: Inhibitory activity (3 uM) against Staphylococcus aureus tyrosyl tRNA synthetase (YRS) using aminoacylation assay; No inhibition
pIC50 [1],IC50 [2],SMILES
8.92,–,N[C@@H](Cc1ccc(O)cc1)C(=O)N[C@H](C(=O)O)[C@H]1[C@H](O)[C@@H](O)[C@@H](O)CN1O
–,Not Active,N[C@@H](Cc1ccc(O)cc1)C(=O)N[C@@H](C(=O)O)[C@H]1OC[C@@H](O)[C@@H](O)[C@@H]1O
–,Not Active,N[C@@H](Cc1ccc(O)cc1)C(=O)N[C@H](C(=O)O)[C@H]1OC[C@@H](O)[C@@H](O)[C@@H]1O
